Data from patent US11578310B2, “Method for producing CD4/CD8 double-positive T cells” (Kyoto University, priority 2016, dated 2023).

Test system: hematopoietic progenitor cells induced from iPS cells or ES cells
Test: Induction of CD4/CD8 double-positive T cells from hematopoietic progenitor cells induced from pluripotent stem cells (flow cytometry)
Format: cell-based, human
Settings: TKT3v 1-7 line; medium containing SB203580 alone or SDF-1α alone vs neither; FIG. 5
Protocol: On an ultralow-adhesion-treated 6-well plate (CORNING: #3471). TkT3V1-7. Ffl-01, Ffl-14, or KhES-3 was plated at 3×10^5 to 6×10^5 cells/well (Day 0), and the cells were cultured under hypoxic conditions (5% O2) for five days in EB medium (StemPro34 supplemented with 10 μg/ml human insulin, 5.5 μg/ml human transferrin, 5 ng/ml sodium selenite, 2 mM L-glutamine, […] α-monothioglycerol, and 50 μg/ml ascorbic acid) supplemented with 10 ng/ml BMP4, 5 ng/ml bFGF, 15 ng/ml VEGF, and 2 μM SB431542 (Day 5).
Subsequently, 50 ng/ml SCF, 30 ng/ml TPO, and 10 ng/ml Flt3L were added, and additional culture was performed for 5 to 9 days (up to Day 14).

Row | Substance | induction of CD4/CD8 double-positive T cells, each agent used alone
1 | 4-(4-fluorophenyl)-2-(4-methylsulfonylphenyl)-5-(4-pyridyl)-1H-imidazole [SB203580] | can be produced even when each of these was used alone
2 | SDF-1α | can be produced even when each of these was used alone
